This passage reports Ki and inhibition results from ChEMBL document CHEMBL3797194, “Benzimidazolone bioisosteres of potent GluN2B selective NMDA receptor antagonists” (Eur J Med Chem, 2016).

The target in experiment [1] is T1, Glutamate receptor ionotropic, NMDA 2B (Homo sapiens, UniProt Q13224). Put plainly: Displacement of [3H]ifenprodil from recombinant human GluN2B expressed in mouse L(tk-) cell membranes incubated for 120 mins by microbeta scintillation counting analysis.
Target sequence in this assay (Q13224 whole entry): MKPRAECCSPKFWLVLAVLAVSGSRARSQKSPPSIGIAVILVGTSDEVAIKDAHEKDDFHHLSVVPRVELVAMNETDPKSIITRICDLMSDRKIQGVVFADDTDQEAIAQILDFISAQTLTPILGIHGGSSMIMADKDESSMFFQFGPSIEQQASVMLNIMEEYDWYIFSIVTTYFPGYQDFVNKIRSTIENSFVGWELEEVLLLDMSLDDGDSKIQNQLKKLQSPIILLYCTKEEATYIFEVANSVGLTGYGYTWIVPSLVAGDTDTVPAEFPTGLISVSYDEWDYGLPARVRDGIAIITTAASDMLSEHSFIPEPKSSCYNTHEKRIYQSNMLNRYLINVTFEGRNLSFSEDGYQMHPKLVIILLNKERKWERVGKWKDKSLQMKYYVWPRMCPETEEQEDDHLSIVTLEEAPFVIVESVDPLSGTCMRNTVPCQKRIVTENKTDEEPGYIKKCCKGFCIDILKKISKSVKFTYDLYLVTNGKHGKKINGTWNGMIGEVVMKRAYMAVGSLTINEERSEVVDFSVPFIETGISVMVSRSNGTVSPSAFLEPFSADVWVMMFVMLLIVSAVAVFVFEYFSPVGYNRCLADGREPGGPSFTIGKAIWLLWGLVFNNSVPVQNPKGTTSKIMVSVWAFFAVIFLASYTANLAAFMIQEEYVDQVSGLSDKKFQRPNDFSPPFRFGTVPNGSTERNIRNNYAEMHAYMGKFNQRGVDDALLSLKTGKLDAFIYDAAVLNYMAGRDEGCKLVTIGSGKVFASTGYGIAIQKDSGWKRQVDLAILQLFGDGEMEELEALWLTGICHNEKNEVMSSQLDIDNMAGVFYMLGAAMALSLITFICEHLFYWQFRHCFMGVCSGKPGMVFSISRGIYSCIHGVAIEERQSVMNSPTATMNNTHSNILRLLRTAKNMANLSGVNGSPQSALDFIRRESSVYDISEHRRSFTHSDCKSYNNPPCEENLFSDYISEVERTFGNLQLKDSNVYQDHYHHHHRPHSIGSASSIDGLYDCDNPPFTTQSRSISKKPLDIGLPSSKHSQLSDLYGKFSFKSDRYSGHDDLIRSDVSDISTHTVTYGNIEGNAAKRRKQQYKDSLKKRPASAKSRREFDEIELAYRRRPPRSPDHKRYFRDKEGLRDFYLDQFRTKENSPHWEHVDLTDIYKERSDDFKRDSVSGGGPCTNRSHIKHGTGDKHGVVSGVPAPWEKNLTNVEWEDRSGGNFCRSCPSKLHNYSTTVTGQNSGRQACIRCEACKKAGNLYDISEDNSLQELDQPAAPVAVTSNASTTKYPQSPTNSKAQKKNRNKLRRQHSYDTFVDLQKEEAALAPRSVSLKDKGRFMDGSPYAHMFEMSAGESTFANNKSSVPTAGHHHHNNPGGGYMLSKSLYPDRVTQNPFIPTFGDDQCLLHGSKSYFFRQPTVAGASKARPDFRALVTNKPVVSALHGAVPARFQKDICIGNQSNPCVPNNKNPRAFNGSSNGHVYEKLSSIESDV
Experiment [2] is described as follows: Displacement of [3H]DTG from sigma2 receptor in rat liver homogenate incubated for 120 mins by solid scintillation counting analysis. In kind it is tissue-based. (Loss of bound radioactivity is the signal in a displacement assay; it reports binding, not function.)
Experiment [3] addresses Sigma non-opioid intracellular receptor 1 (Cavia porcellus, UniProt Q60492). Put plainly: Displacement of [3H]-(+)-Pentazocine from sigma1 receptor in guinea pig brain homogenate incubated for 120 mins by solid scintillation counting analysis. In kind it is tissue-based.
The species entered for a further experiment is Rattus norvegicus. As to the kind of experiment: Displacement of [3H]DTG from sigma2 receptor in rat liver homogenate at 1 uM incubated for 120 mins by solid scintillation counting analysis. The format is tissue-based.
Experiment [4] has as its target T1, Glutamate receptor ionotropic, NMDA 2B. As to the kind of experiment: Displacement of [3H]ifenprodil from recombinant human GluN2B expressed in mouse L(tk-) cell membranes at 1 uM incubated for 120 mins by microbeta scintillation counting analysis.
Target sequence in this assay (Q13224 27-1484 limits assumed): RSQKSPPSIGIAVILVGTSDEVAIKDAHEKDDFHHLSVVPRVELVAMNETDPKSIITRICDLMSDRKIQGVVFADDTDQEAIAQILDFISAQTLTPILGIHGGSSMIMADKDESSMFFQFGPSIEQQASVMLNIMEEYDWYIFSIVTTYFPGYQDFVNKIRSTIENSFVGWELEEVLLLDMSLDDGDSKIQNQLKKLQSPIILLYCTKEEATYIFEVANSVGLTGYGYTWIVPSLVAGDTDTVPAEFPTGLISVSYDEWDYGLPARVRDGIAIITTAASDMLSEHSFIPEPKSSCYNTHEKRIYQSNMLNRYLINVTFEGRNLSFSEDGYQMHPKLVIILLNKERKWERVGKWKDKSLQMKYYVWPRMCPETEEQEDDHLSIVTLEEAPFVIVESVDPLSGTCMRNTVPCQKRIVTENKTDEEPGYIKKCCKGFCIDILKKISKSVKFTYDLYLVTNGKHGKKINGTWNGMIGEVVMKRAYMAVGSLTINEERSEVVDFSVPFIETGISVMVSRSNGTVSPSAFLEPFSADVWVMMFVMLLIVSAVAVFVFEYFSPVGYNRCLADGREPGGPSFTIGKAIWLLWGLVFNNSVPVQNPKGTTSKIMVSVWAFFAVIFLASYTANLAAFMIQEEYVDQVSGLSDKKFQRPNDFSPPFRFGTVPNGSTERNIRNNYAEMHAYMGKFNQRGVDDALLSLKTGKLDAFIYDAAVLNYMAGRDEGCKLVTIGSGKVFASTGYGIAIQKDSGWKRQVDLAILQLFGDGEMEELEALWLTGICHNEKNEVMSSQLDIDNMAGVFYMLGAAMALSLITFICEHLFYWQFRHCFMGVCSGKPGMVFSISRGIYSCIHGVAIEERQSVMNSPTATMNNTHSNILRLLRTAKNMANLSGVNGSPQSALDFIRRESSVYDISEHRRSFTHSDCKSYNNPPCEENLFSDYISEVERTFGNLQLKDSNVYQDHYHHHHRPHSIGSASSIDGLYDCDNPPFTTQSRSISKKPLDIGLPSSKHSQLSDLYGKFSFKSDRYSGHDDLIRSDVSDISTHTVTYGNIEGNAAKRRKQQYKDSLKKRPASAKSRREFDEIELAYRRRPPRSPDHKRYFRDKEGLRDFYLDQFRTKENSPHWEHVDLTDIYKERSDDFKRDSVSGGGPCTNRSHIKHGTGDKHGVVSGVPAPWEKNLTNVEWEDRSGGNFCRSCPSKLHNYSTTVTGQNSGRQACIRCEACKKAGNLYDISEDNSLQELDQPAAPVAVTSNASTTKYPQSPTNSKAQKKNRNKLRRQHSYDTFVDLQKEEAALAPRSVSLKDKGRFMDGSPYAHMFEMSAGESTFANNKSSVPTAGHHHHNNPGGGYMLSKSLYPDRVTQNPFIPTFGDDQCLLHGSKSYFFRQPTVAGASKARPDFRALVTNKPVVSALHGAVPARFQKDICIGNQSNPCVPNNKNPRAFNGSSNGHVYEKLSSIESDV
Experiment [5] addresses Sigma non-opioid intracellular receptor 1 (Cavia porcellus) (UniProt Q60492). Put plainly: Displacement of [3H]-(+)-Pentazocine from sigma1 receptor in guinea pig brain homogenate at 1 uM incubated for 120 mins by solid scintillation counting analysis. The format is tissue-based.
The target in experiment [6] is T1, Glutamate receptor ionotropic, NMDA 2B. As to the kind of experiment: Binding affinity to GluN2B (unknown origin).
Target sequence in this assay (Q13224 whole entry): as the sequence (Q13224 whole entry) above

Chain of Sigma non-opioid intracellular receptor 1 (Cavia porcellus) (Q60492 whole entry): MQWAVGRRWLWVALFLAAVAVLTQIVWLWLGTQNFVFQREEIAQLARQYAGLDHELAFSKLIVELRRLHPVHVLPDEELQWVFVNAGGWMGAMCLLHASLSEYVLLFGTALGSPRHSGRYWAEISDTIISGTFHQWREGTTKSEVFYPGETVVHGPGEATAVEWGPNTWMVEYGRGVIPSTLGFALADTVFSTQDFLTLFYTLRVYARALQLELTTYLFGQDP
Chain of Sigma non-opioid intracellular receptor 1 (Q60492 whole entry): as above

`Cn1c(=O)n(C)c2cc3c(cc21)CCCC(NCCCc1ccccc1)C3` (racemic): the Ki stood at 697 nM in experiment [1], 549 nM in experiment [2] and 4000 nM in experiment [3].
As to `Cn1c(=O)n(C)c2cc3c(cc21)CCC[C@@H](O)[C@@H]3NCCCc1ccccc1` (racemic), the inhibition in the experiment filed under Rattus norvegicus was 32%; in experiment [4] it was 0%; in experiment [5] it was 19%.
The matching figures for `Cn1c(=O)n(C)c2cc3c(cc21)CCC[C@@H](O)[C@@H]3O` (racemic): 18%, 18% and 0%.
Turning to `Cn1c(=O)n(C)c2cc3c(cc21)CCC[C@H](O)[C@@H]3O` (racemic), the inhibition in the experiment listed under Rattus norvegicus stood at 5%; in experiment [4], 0%; in experiment [5], 11%.
Turning to `O=c1[nH]c2ccc([S+]([O-])CCN3CCC(Cc4ccc(F)cc4)CC3)cc2o1` (centres undefined) [BESONPRODIL], the affinity in experiment [6] corresponds to a Ki of 30 nM.
In the case of `Cc1ccccc1NC(=N)Nc1ccccc1C` [DITOLYLGUANIDINE], the Ki in experiment [2] is 57.5 nM.

A word on the Ki: it is the equilibrium dissociation constant of an inhibitor or competing ligand from its target. The term inhibition denotes the relative decrease from the control value, in per cent.
